# Data published in US20160201063A1, “EPIGENETIC REGULATORS OF FRATAXIN” (RANA THERAPEUTICS, INC., priority 2013, published 2016).
# What was measured:
# [1] = system: FXN protein; assay: FXN protein western blot in GM03816 and GM04078 cells treated with histone lysine methyltransferase inhibitor; format: cell-based, human; conditions: 3 days of HLMi treatment, 5 μM, 2.5 μM, 1.25 μM, vs DMSO
# Protocol: Results from control cells treated with DMSO and without inhibitor treatment are also shown.
# Human FRDA diseased cell lines GM03816 and GM04078 were plated at 150000 cells/well. The cells were treated at various concentrations and times with a histone lysine methyltransferase inhibitor dissolved in DMSO. The antibody used for detection of FXM protein was Abcam human FXN antibody (ab48281).
# [2] = system: FXN mRNA; assay: Screen of epigenetic inhibitors in GM0321 normal fibroblasts, FXN RNA levels; format: cell-based, human; conditions: GM0321 normal fibroblasts, 3 days of treatment; for FXN mRNA fold change, 321B 1 uM: 1 uM inhibitor; for FXN mRNA fold change, 321B 5 uM: 5 uM inhibitor
# [3] = system: FXN mRNA; assay: Screen of library of eighty epigenetic inhibitors in GM03816 FRDA diseased fibroblasts, FXN mRNA fold change; format: cell-based, human; conditions: GM03816 FRDA diseased fibroblasts, 3 days of treatment; for 3816 1 uM (FXN mRNA fold change): 1 uM inhibitor; for 3816 5 uM (FXN mRNA fold change): 5 uM inhibitor
# Protocol: FXN RNA levels are indicated on the y-axis and the inhibitors used at both 1 μM and 5 μM are shown on the x-axis.
# A screen of a library of eighty epigenetic inhibitors (Cayman Chemical) was performed in GM03816 FRDA fibroblasts to identify epigenetic regulators that upregulate FXN expression.
# [4] = system: FXN mRNA; assay: Gapmer screen in differentiated myotubes, FXN mRNA levels; format: cell-based; conditions: 4 days after transfection
# Description: Subsequently, various oligos targeting ACTL6A, EID1, HIC1, JUND, KAT2A, PRKCD, and YEATS4 were screened in differentiated myotubes for FXN mRNA levels. Measurements were taken 4 days after transfection.
# [5] = system: FXN protein; assay: Western blot of FXN protein in gapmer-treated GM03816 lysates; format: cell-based, human; conditions: treated vs untreated
# Description: Next, a Western blot with the Abcam ab48281 FXN and Abcam ab125267 tubulin antibodies were run using treated and untreated GM03816 lysates.
compound,measurement,setting,value
"COc1cc2nc(N3CCCN(C)CC3)nc(NC3CCN(Cc4ccccc4)CC3)c2cc1OC [HLMi, 2-(Hexahydro-4-methyl-1H-1,4-diazepin-1-yl)-6,7-dimethoxy-N-(1-(phenylmethyl)-4-piperidinyl)-4-quinazolinamine]",FXN protein level (western blot),[1],FXN human protein upregulation
"(3S,3′S,5aR,5aR,10bR,10′bR,11aS,11′aS)- 2,2′,3,3′,5a,5′a,6,6′-octahydro- 3,3′-bis(hydroxymethyl)-2,2′- dimethyl-[10b,10′b(11H,11′H)- bi3,11a-epidithio-11aH- pyrazino[1′,2′:1,5]pyrrolo[2,3- b]indole]-1,1′4,4′-tetrone [Chaetocin, reference compound]","FXN mRNA fold change, 321B 1 uM",[2],0.9084
same,"FXN mRNA fold change, 321B 5 uM",[2],0.9952
same,3816 1 uM (FXN mRNA fold change),[3],0.9302
same,3816 5 uM (FXN mRNA fold change),[3],0.7778
(−)-Neplanocin A,"FXN mRNA fold change, 321B 1 uM",[2],0.8734
same,"FXN mRNA fold change, 321B 5 uM",[2],1.105
same,3816 1 uM (FXN mRNA fold change),[3],1.067
same,3816 5 uM (FXN mRNA fold change),[3],0.943
"ACTL6A-02: LNA/DNA gapmer to human ACTL6A, SEQ ID NO 2, ATCGCCATCTATTTC (LNA modifications, chemistry not fully specified)",FXN mRNA level,[4],upregulation of FXN mRNA
"ACTL6A-03: LNA/DNA gapmer to human ACTL6A, SEQ ID NO 3, GAACGACCATTAGCA (LNA modifications, chemistry not fully specified)",FXN mRNA level,[4],upregulation of FXN mRNA
same,FXN protein level (western blot),[5],strong upregulation
"ACTL6A-04: LNA/DNA gapmer to human ACTL6A, SEQ ID NO 4, GCCCAGTAGAACGAC (LNA modifications, chemistry not fully specified)",FXN mRNA level,[4],upregulation of FXN mRNA
Anacardic Acid,"FXN mRNA fold change, 321B 1 uM",[2],1.169
same,"FXN mRNA fold change, 321B 5 uM",[2],0.8356
same,3816 1 uM (FXN mRNA fold change),[3],1.162
same,3816 5 uM (FXN mRNA fold change),[3],1.01
"EID1-04: LNA/DNA gapmer to human EID1, SEQ ID NO 12, AGCTCTTCGATAAAA (LNA modifications, chemistry not fully specified)",FXN mRNA level,[4],upregulation of FXN mRNA
"HIC1-1: LNA/DNA gapmer to human HIC1, SEQ ID NO 70, GGCCGGTGTAGATGA (LNA modifications, chemistry not fully specified)",FXN mRNA level,[4],upregulation of FXN mRNA
"JUND-1: LNA/DNA gapmer to human JUND, SEQ ID NO 61, CCGTAGAAGGGTGTT (LNA/DNA gapmer, wing pattern not given here)",FXN mRNA level,[4],upregulation of FXN mRNA
same,FXN protein level (western blot),[5],strong upregulation
"JUND-6: LNA/DNA gapmer to human JUND, SEQ ID NO 66, TGGCTCGTCCTTGAG (LNA modifications, chemistry not fully specified)",FXN mRNA level,[4],upregulation of FXN mRNA
"KAT2A-05: LNA/DNA gapmer to human KAT2A, SEQ ID NO 35, CATTGACCAGCTCCA (LNA modifications, chemistry not fully specified)",FXN mRNA level,[4],upregulation of FXN mRNA
"KAT2A-06: LNA/DNA gapmer to human KAT2A, SEQ ID NO 36, GGCGATATACTCCTT (LNA modifications, chemistry not fully specified)",FXN mRNA level,[4],upregulation of FXN mRNA
Oxamflatin,"FXN mRNA fold change, 321B 1 uM",[2],0.5612
same,"FXN mRNA fold change, 321B 5 uM",[2],0.2391
same,3816 1 uM (FXN mRNA fold change),[3],0.3506
same,3816 5 uM (FXN mRNA fold change),[3],0.108
"PRKCD-2: LNA/DNA gapmer to human PRKCD, SEQ ID NO 42, TGCGCATAGACTGTT (LNA modifications, chemistry not fully specified)",FXN mRNA level,[4],upregulation of FXN mRNA
same,FXN protein level (western blot),[5],strong upregulation
UNC0321 (trifluoroacetate salt),"FXN mRNA fold change, 321B 1 uM",[2],0.7517
same,"FXN mRNA fold change, 321B 5 uM",[2],0.605
same,3816 1 uM (FXN mRNA fold change),[3],0.9323
same,3816 5 uM (FXN mRNA fold change),[3],0.8929
"YEATS4-5: LNA/DNA gapmer to human YEATS4, SEQ ID NO 87, TCGAATTCACCCCAT (LNA modifications, chemistry not fully specified)",FXN mRNA level,[4],upregulation of FXN mRNA
"YEATS4-9: LNA/DNA gapmer to human YEATS4, SEQ ID NO 91, AGTTTCACGACTTGC (LNA modifications, chemistry not fully specified)",FXN mRNA level,[4],upregulation of FXN mRNA
